The values below come from ChEMBL document CHEMBL1155108, “SAR, pharmacokinetics, safety, and efficacy of glucokinase activating 2-(4-sulfonylphenyl)-N-thiazol-2-ylacetamides: discovery of PSN-GK1” (J Med Chem, 2008).

Converted amounts (≈) assume the structure as drawn. The source made the active and inactive calls. The calls are words filed in the database; no cut-off is given here. Some results are limits rather than exact numbers.

One data set addresses T1, Hexokinase-4 (Homo sapiens, UniProt P35557).
T1 sequence (P35557 whole entry): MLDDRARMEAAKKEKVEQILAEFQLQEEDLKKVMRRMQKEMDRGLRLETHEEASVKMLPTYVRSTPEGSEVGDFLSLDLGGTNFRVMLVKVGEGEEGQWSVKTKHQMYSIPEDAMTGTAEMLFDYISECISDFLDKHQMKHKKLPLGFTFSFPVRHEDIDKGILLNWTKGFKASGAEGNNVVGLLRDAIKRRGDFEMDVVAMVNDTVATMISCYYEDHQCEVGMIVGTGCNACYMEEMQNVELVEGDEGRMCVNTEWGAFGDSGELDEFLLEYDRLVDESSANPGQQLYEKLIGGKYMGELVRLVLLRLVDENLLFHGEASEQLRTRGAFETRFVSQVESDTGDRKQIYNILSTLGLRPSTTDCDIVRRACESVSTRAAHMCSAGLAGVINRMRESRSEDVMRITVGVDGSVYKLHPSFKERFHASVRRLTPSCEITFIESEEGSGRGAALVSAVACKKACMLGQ
Description: Activation of GST fused human liver glucokinase assessed as generation of NADPH by G6PDH coupled assay.

Data set [1] is described as follows: Metabolic stability in mouse liver microsomes. The format is ADME, Microsome. (In general: Microsomes from liver hold many membrane-bound enzymes, among them those of drug oxidation.)
Data set [2] is described as follows: Aqueous solubility at pH 6.5 buffer. The format is physicochemical.
Data set [3] can be described thus: Plasma concentration in C57B1/6 mouse at 5 mg/kg, po after 0.5 hrs. The format is ADME, organism-based. Details: dose 5 mg/kg, route oral.
Data set [4] can be described thus: Plasma concentration in C57B1/6 mouse at 10 mg/kg, po after 0.5 hrs. Format: ADME, organism-based. Details: dose 10 mg/kg, route oral.
Data set [5] concerns Rattus norvegicus. Description: Acute toxicity in rat at >=100 mg/kg, po. The following applies: in vivo. The format is organism-based.
In data set [6] the test system is Rattus norvegicus. Description: Toxicity in Sprague-Dawley rat at 250 mg/kg, po. Format: organism-based. Details: dose 250 mg/kg, route oral. Conditions: in vivo.
The nature of data set [7]: Cmax in Sprague-Dawley rat at 250 mg/kg, po. Format: ADME, organism-based. The following applies: in vivo. Details: dose 250 mg/kg, route oral.
A short description of data set [8]: AUC (0 to 24 hrs) in Sprague-Dawley rat at 250 mg/kg, po. Also noted: time < 24 hr, dose 250 mg/kg, route oral. The following applies: plasma. Format: ADME, organism-based.
A short description of data set [9]: Clearance in Sprague-Dawley rat at 1 mg/5 mL/kg, iv in 40% DMSO. Format: ADME, organism-based. The following applies: in vivo, 1 mg/kg.
Data set [10] in a line: Volume of distribution at steady state in Sprague-Dawley rat at 1 mg/5 mL/kg, iv in 40% DMSO. The format is ADME, organism-based. The following applies: in vivo, 1 mg/kg, read-out: Vdss.
A short description of data set [11]: Half life in Sprague-Dawley rat at 1 mg/5 mL/kg, iv in 40% DMSO. Format: ADME, organism-based. Conditions: in vivo, 1 mg/kg.
The nature of data set [12]: AUC (0 to infinity) in Sprague-Dawley rat at 1 mg/5 mL/kg, iv in 40% DMSO. The following applies: plasma, 1 mg/kg. Also noted: dose 5 mL/kg, time infinity, route intravenous. The format is ADME, organism-based.
Data set [13] can be described thus: Cmax in Sprague-Dawley rat at 5 mg/10 mL/kg, po in 10% aqueous gelucire 44/14. The format is ADME, organism-based. Conditions: in vivo, 5 mg/kg.
Data set [14] is described as follows: Tmax in Sprague-Dawley rat at 5 mg/10 mL/kg, po in 10% aqueous gelucire 44/14. Format: ADME, organism-based. Conditions: in vivo, 5 mg/kg.
A short description of data set [15]: Half life in Sprague-Dawley rat at 5 mg/10 mL/kg, po in 10% aqueous gelucire 44/14. Format: ADME, organism-based. Conditions: in vivo, 5 mg/kg.
Data set [16] can be described thus: AUC (0 to infinity) in Sprague-Dawley rat at 5 mg/10 mL/kg, po in 10% aqueous gelucire 44/14. Also noted: dose 10 mL/kg, time infinity, route oral. Format: ADME, organism-based. Conditions: plasma, 5 mg/kg.
The nature of data set [17]: Oral bioavailability in Sprague-Dawley rat at 5 mg/10 mL/kg in 10% aqueous gelucire 44/14. The following applies: in vivo, 5 mg/kg. The format is ADME, organism-based.
The subject of data set [18] is Rattus norvegicus. Description: Reduction in blood glucose level in fasted Sprague-Dawley rat at 10 mg/kg, po for 360 mins. The format is functional, organism-based. Also noted: dose 10 mg/kg.

Usually EC50 stands for the concentration at which the effect is half-maximal. As usually defined, the half-life is how long it takes for the measured level to halve. Low readings indicate rapid decline, high ones slow decline. Broadly, the solubility is how much of the substance goes into solution per volume. In general, Cmax refers to the highest concentration seen after dosing. The AUC(0-t) is the area under the concentration-time curve up to a stated or last time point. Higher therefore signals more exposure. As a reminder, the clearance is the volume of plasma or blood freed of the substance per unit of time. The low end stands for inefficient removal, the high end for efficient removal. Broadly, the AUC(0-inf) is the area under the concentration-time curve extrapolated to infinity. A low value points to less exposure. One may read the Tmax as the time at which the peak concentration occurs.

Take `CS(=O)(=O)c1ccc([C@H](CC2CCOCC2)C(=O)Nc2nccs2)cc1`: on Hexokinase-4, the concentration giving a half-maximal response (EC50) is more than 10000 nM.
Regarding `CS(=O)(=O)c1ccc(C(CC2CCOCC2)C(=O)Nc2nccs2)cc1` (stereo not drawn), the EC50 on Hexokinase-4 was 8930 nM. For the same compound, the half-life in data set [1] is more than 3.33 h. In addition, the solubility in data set [2] was 97 µg/mL (≈ 246 µM).
Consider `O=C(Nc1ncc(F)s1)[C@H](CC1CCOCC1)c1ccc(S(=O)(=O)C2CCC2)cc1`, for which the concentration giving a half-maximal response (EC50) on Hexokinase-4 was determined as 140 nM. The half-life in [1] amounted to 0.45 h. This compound also showed a solubility in data set [2] of 60 µg/mL (≈ 133 µM). This compound yielded a concentration at 0.5 h in data set [3] of 1180 ng/mL.
`O=C(Nc1nccs1)[C@H](CC1CCOCC1)c1ccc(S(=O)(=O)C2CC2)cc1`: at Hexokinase-4, the 50% effective concentration (EC50) worked out at 570 nM. In [1], this compound gave a half-life of 2.4 h. Besides, in [2], the solubility is 147 µg/mL (≈ 350 µM). The compound further gave a concentration at 0.5 h in data set [4] of 1860 ng/mL. In addition, the Activity entry in the data set with Rattus norvegicus [5] is “Toxic”.
For the compound `CS(=O)(=O)c1ccc(/C(=C\C2CCOCC2)C(=O)Nc2nccs2)cc1`, at Hexokinase-4, the EC50 came to 2300 nM. The half-life in data set [1] was more than 3.33 h. For the same compound, the solubility in data set [2] stood at 13 µg/mL (≈ 33.1 µM). Moreover, the concentration at 0.5 h in data set [4] turned out to be 3680 ng/mL.
On to `CS(=O)(=O)c1ccc(C(=Cc2cccs2)C(=O)Nc2nccs2)cc1`, for which the EC50 on Hexokinase-4 was found to be 560 nM.
As for `O=C(Nc1ncc(F)s1)[C@H](CC1CCOCC1)c1ccc(S(=O)(=O)C2CCCC2)cc1`, at Hexokinase-4, the EC50 was 70 nM. In data set [1], this compound gave a half-life of 0.267 h. The same compound yielded a solubility in data set [2] of 24 µg/mL (≈ 51.4 µM). The compound also showed a concentration at 0.5 h in [4] of 168 ng/mL.
`CS(=O)(=O)c1ccc([C@@H](CC2CCOCC2)C(=O)Nc2ncc(F)s2)cc1`: on Hexokinase-4, the EC50 was found to be 1430 nM. The half-life in data set [1] is 2.08 h. In data set [2], this compound yielded a solubility of 298 µg/mL (≈ 722 µM). Further, in [4], the concentration at 0.5 h amounted to 8280 ng/mL.
Consider `CS(=O)(=O)c1ccc([C@@H](CC2CCOCC2)C(=O)Nc2nccs2)cc1`, for which the concentration for a half-maximal effect (EC50) at Hexokinase-4 was 3470 nM. The compound also returned a half-life in data set [1] of more than 3.33 h. Further, the solubility in data set [2] is 410 µg/mL (≈ 1040 µM). The same compound yielded a concentration at 0.5 h in data set [4] of 5150 ng/mL. The Activity entry with Rattus norvegicus [5] is on record as “Toxic”.
Turning to `O=C(Nc1cnccn1)/C(=C/c1cccs1)c1ccccc1`, on Hexokinase-4, the EC50 turned out to be 26000 nM.
As to `O=C(Nc1ncc(F)s1)[C@H](CC1CCOCC1)c1ccc(S(=O)(=O)C2CC2)cc1`, the half-life in data set [1] is 1.5 h; in [11] it was 3.2 h; in data set [15] it was 3.4 h. Moreover, the solubility in data set [2] was found to be 58 µg/mL (≈ 132 µM). Also, in data set [4], the concentration at 0.5 h turned out to be 5010 ng/mL. Besides, in the data set on Rattus norvegicus [6], the Activity result was “Non-toxic”. For the same compound, the figures for the Cmax in data set [7] and in [13] were 49200 ng/mL and 1130 ng/mL, respectively. In data set [8], this compound gave an area under the curve AUC(0-t) at 24 h of 898000 ng·h/mL. The compound also yielded a clearance in [9] of 10 mL/min/kg. Further, the Vd in data set [10] was found to be 2.1 L/kg. In addition, the AUC(0-inf) was determined as 1660 ng·h/mL in data set [12] and 10700 ng·h/mL in data set [16]. For the same compound, in [14], the Tmax is 1 h. Besides, in data set [17], the bioavailability turned out to be 129%. The result in the data set on Rattus norvegicus [18] was Active.
For `Cc1cnc(NC(=O)[C@H](CC2CCOCC2)c2ccc(S(=O)(=O)C3CC3)cc2)s1`, the 50% effective concentration (EC50) on Hexokinase-4 is 580 nM. In [1], this compound yielded a half-life of 0.883 h. In data set [2], this compound came in with a solubility of 40 µg/mL (≈ 92 µM). In addition, in data set [4], the concentration at 0.5 h worked out at 1640 ng/mL.
As for `O=C(Nc1nccs1)/C(=C/c1cccs1)c1ccccc1`, at Hexokinase-4, the concentration for a half-maximal effect (EC50) turned out to be 10800 nM.
